Laboratory results reported in PMC6449294, “SNAPshots of the MCHR1: a Comparison Between the PET-Tracers [^18F]FE@SNAP and [^11C]SNAP-7941” (Molecular Imaging and Biology, 2018).
Where two headings read alike, the source gives them in different places.

Columns and labels:
[1] = parameters: method as in PMID 23829932, PMID 24106662, PMID 27033361; details: result in words, not determined in this paper for this tracer; cited from earlier work
MCHR1 = target: T1, MCHR1 (Rattus norvegicus, UniProt P97639); experiment: Small animal PET displacement study with (±)-SNAP-7941 (time-activity curves); format: in vivo; details: rats; for change of brown adipose tissue (BAT) TAC after administration of (±)-SNAP-7941 / change of lung TAC after displacement: 15 mg/kg (±)-SNAP-7941; for displacement in whole brain (TAC): 15 mg/kg (±)-SNAP-7941 i.v. 15 or 20 min after tracer
T1 construct: from tissue; host or cells: living Sprague-Dawley rats (PET) and their organs after sacrifice
Protocol: (§1) Ten-week-old male rats (412 ± 58 g, Sprague-Dawley, HIM:OFA, n = 30) and 12-week-old male mice (24 ± 6 g, BALB/cAnNRj, n = 7) were purchased from the Division of Laboratory Animal Science and Genetics, Himberg, Austria. Animals were kept under conventional housing conditions (22 ± 1 °C; 40–70 % humidity) with food and water supply ad libitum and 12-h day/night cycle. All animals were treated according to the European Union rules on animal care and respective animal experiments were approved by the Austrian Ministry of Sciences, Research and Economy (BMWFW-66.009/0029-WF/V/3b/20159). For in vivo imaging, animals were anesthetized using 1.5–2 % isoflurane mixed with oxygen (1.5–2 l/min) to avoid movement during the examination. Anesthesia as well as vital parameters were monitored during the time interval of PET acquisition. Radioligands and non-labeled compounds were administered intravenously via the lateral tail vein.
Anesthetized rats and mice were immobilized in a multimodal animal carrier unit (MACU; medres®—medical research GmbH, Cologne, Germany). The body temperature was preserved at 37 °C throughout the whole experiment. Rats received either [^11C]SNAP-7941 or [^18F]FE@SNAP, followed by an injection of (±)-SNAP-7941 (15-mg/kg body weight; displacement study; n = 4 for each radiotracer) or the respective solvent serving as the vehicle (baseline condition; n = 4 for each radiotracer). The MCHR1 antagonist, (±)-SNAP-7941, and the vehicle were administered either 15 ([^11C]SNAP-7941) or 20 min ([^18F]FE@SNAP) after the radiotracer application via the lateral tail vein. To investigate a potential binding to the P-glycoprotein (P-gp) and/or breast cancer resistance protein (BCRP) brain efflux transporter system, rats as well as mice were pretreated either with the P-gp/BCRP inhibitor TQD (15 mg/kg body weight; P-gp/BCRP inhibition group; rats: n = 4 for each radiotracer; mice: n = 4 for [^18F]FE@SNAP) or the respective solvent (baseline condition; rats: n = 3 for each radiotracer; mice: n = 3 for [^18F]FE@SNAP)). Mice received the P-gp/BCRP inhibitor 30 min and rats 60 min before the radiotracer application. Experiments were initiated with a 7-min cone beam attenuation CT (CBCT) of the brain (full rotation, 360 projections; binning 4 × 4; 80 kV; 500 μA; 200-ms exposure time) using a small animal cone beam computed tomography (CBCT) scanner (Siemens Inveon microSPECT/CT, Siemens Medical Solutions, Knoxville, USA). Subsequently, the animals were positioned in the Siemens Inveon microPET scanner (Siemens Medical Solution, Knoxville, USA). The radiotracers were injected intravenously, and dynamic PET imaging was performed for 45 min (rats) in case of [^11C]SNAP-7941 (77.46 ± 5.41 MBq; molar activity 76.66 ± 23.58 GBq/μmol; radiochemical purity > 99 %) and 30 min (mice)—60 min (rats) for [^18F]FE@SNAP (47.08 ± 6.24 MBq; molar activity 22.18 ± 9.72 GBq/μmol; radiochemical purity > 90 %).
Image reconstruction of the CT raw data was performed with a Feldkamp algorithm using a ramp filter followed by standard rat beam-hardening correction and noise reduction (matrix size 1024 × 1024; effective pixel size: 97.56 μm). All CT image data was calibrated to Hounsfield units (HU). PET list mode data were sorted into three-dimensional sinograms according to the following frame sequences, [^11C]SNAP-7941: 1 × 3 s, 3 × 2 s, 1 × 6 s, 1 × 15 s, 1 × 35 s, 1 × 145 s, 1 × 270 s, 1 × 285 s, 1 × 165 s, 3 × 30 s, 1 × 120 s, 1 × 240 s, 1 × 420 s, 1 × 900 s and for [^18F]FE@SNAP: 1 × 2 s, 1 × 3 s, 1 × 5 s, 3 × 10 s, 1 × 20 s, 1 × 60 s, 1 × 120 s, 4 × 240 s, 4 × 600 s. PET image reconstruction were performed using an OSEM 3D/OP-MAP with scatter correction and a ramp filter (matrix size 128 × 128). Image data were normalized and corrected for random events, dead time, and radioactive decay. A calibration factor was applied to convert the activity information into absolute concentration units. […]

[2] = Ex vivo metabolites in rat brain (radio-HPLC)
Protocol: For the analysis of potential radiometabolites, blood samples (50–80 μl) from rats were withdrawn at 10 and 45 min for [^11C]SNAP-7941 and at 10, 30, and 60 min for [^18F]FE@SNAP and immediately subjected to the equivalent amount of acetonitrile, homogenized, and stored on ice before processing. Additionally, [^18F]FE@SNAP was administered to three rats, which were sacrificed after 45 min. Whole brains were harvested and homogenized with equivalent amounts (500–800 μl) of acetonitrile and 0.9 % saline solution using an ULTRA-TURRAX® (T25 basic, IKA Laboratory Equipment, Staufen, Germany). Subsequently, blood and brain were centrifuged (23,000 ×g, 4 min, 4 °C; Hettich Universal 30RF, Tuttlingen, Germany), and the obtained supernatant was analyzed by an analytical HPLC equipped with a radioactivity detector (radio-HPLC) (stationary phase: Chromolith® Performance RP-18e, 100–4.6 mm; precolumn: Chromolith® Guard Cartridge RP-18e, 5–4.6 mm; Merck, Darmstadt, Germany), mobile phase: (water/acetic acid 97.5/2.5 v/v; 2.5 g/l ammonium acetate; pH 3.5)/acetonitrile 70/30 v/v; flow: 1 ml/min, λ = 254 nm). The ratio between metabolite and intact radiotracer was calculated using quantitative HPLC analysis.

P-gp/BCRP = experiment: Small animal PET of mouse brain, vehicle vs pretreatment with P-gp/BCRP inhibitor TQD; format: in vivo; details: mice, TQD 15 mg/kg 30 min before radiotracer
Protocol: as §1
Anesthetized rats and mice were immobilized in a multimodal animal carrier unit (MACU; medres®—medical research GmbH, Cologne, Germany). The body temperature was preserved at 37 °C throughout the whole experiment. […]

T1 sequence (P97639 whole entry): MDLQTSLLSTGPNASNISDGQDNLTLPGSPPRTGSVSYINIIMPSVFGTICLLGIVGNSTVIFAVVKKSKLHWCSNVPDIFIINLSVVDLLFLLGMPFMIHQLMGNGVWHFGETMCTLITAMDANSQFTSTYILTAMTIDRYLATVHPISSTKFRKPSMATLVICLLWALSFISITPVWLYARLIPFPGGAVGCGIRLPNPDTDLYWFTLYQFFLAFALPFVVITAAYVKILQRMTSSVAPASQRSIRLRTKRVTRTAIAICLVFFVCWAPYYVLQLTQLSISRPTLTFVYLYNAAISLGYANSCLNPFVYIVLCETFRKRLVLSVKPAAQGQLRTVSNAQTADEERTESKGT

Structure (SMILES) | Metabolism in rat brain [1] | change of brown adipose tissue (BAT) TAC after administration of (±)-SNAP-7941 (MCHR1) | change of lung TAC after displacement (MCHR1) | displacement in whole brain (TAC) (MCHR1) | intact tracer in rat brain ([2]; 45 min) [%] | Metabolism in rat brain ([2]; ex vivo, result in words) | increase of brain uptake in TQD blocking group vs vehicle (P-gp/BCRP) [fold]
COCC1=C(C(=O)O[11CH3])C(c2ccc(F)c(F)c2)N(C(=O)NCCCN2CCC(c3cccc(NC(C)=O)c3)CC2)C(=O)N1 (stereo not shown) [[^11C]SNAP-7941] | Stable | increased uptake | drop in the TAC | clear displacement |  |  | 
COCC1=C(C(=O)OCC[18F])C(c2ccc(F)c(F)c2)N(C(=O)NCCCN2CCC(c3cccc(NC(C)=O)c3)CC2)C(=O)N1 (stereo not shown) [[^18F]FE@SNAP] |  | increased uptake | drop in the TAC | displacement could not be detected | 22.37 ± 5.8 | Rapidly metabolized | 1.93
